Assay results published in patent US9320766B2, “Protective effects and application of a lactobacillus plantarum on the alleviation of lead toxicity” (priority 2012, dated 2016).
Marks after values point to notes of the source that are not given here.

What was measured:
lead-exposed mice [1] = experiment: Oxidative damage caused by lead exposure (liver GSH and MDA); assay type: in vivo; settings: mice fed 1 g/L lead acetate solution, daily treatment
Source text: 40 healthy male Kunming mice of 20-25 g are taken and randomly divided into four groups: namely negative control group, lead acetate model group, Lactobacillus plantarum CCFM8661 treatment group and calcium disodium edetate (EDTANa2Ca) treatment group as positive control. The mice of negative control group are fed with ordinary drinking water and the mice of remaining three groups are fed with 1 g/L lead acetate solution to obtain the lead exposure models. The mice of Lactobacillus plantarum CCFM8661 treatment group are daily fed with the 2.0×10^9 cfu/mL skim milk suspension prepared in Example 3 of this Specification, and the mice of positive control treatment group are intraperitoneally injected with 5 g/L disodium edetate calcium agent every day. The blood is taken at the end of the experiment, and the livers are taken out after these mice are sacrificed. These organs are processed with the Ellmam method (Ellmam, G. C. Tissue sulfhydryl groups. Archives of biochemistry and biophysics 82(1): 70-77.) and the malondialdehyde (MDA) kit of Nanjing Jiancheng Bioengineering Institute to determine the glutathione (GSH) and MDA levels.

lead-exposed mice [2] = experiment: Lead levels of lead-exposed mice; assay type: in vivo; settings: mice fed 1 g/L lead acetate solution; compared with lead model and negative control groups, FIG. 3
Source text: 40 healthy male Kunming mice of 20-25 g are randomly divided into four groups: namely negative control group, lead acetate model group, Lactobacillus plantarum CCFM8661 treatment group, and calcium disodium edetate treatment group as positive control. The mice of negative control group are fed with ordinary drinking water and the mice of remaining three groups are fed with 1 g/L lead acetate solution to obtain the lead exposure models. The mice of Lactobacillus plantarum CCFM8661 treatment group are daily fed with the 2.0×10^9 cfu/mL skim milk suspension prepared in Example 3 of Specifications, and the mice of positive control treatment group are intraperitoneally injected with 5 g/L disodium edetate calcium agent every day. The blood of mice is collected at the end of the experiment, and the liver, stomach and kidney are collected after these mice are sacrificed.
40 healthy male Kunming mice of 20-25 g are taken and randomly divided into four groups: namely negative control group, lead acetate model group, Lactobacillus plantarum CCFM8661 treatment group and calcium disodium edetate treatment group as positive control. […] These organs are processed in accordance with above digestion processes, and then the lead levels can be determined with above atomic absorption spectrophotometry of Example 2.

O=C([O-])CN(CCN(CC(=O)[O-])CC(=O)[O-])CC(=O)[O-].[Ca+2].[Na+].[Na+] [EDTANa2Ca, calcium disodium edetate]
GSH (liver) (lead-exposed mice [1]): 2.15 ± 0.50^c mg/g protein
MDA (liver) (lead-exposed mice [1]): 0.15 ± 0.03^c nmol/mg protein
lead levels of mice blood, liver, stomach and kidney (lead-exposed mice [2]): higher than that of the negative control group, but lower than that of the lead model control group
